# Legend:
# MUTZ-3 cells = settings: MUTZ-3, 24 and 96 hours, tested 0 to 6,561 μM
# Protocol: (§1) In vitro cytotoxicity & proliferation assay (basal) are being performed on human osteoblasts and stem cells monolayers.
# As a human primary osteoclast cell is unable to proliferate, MUTZ-3, a human cell line model for osteoclast differentiation is also being used. MUTZ-3 cells are maintained in a 37° C. humidified incubator with 5% CO2 atmosphere. Cells are cultured in Dulbecco's modified Eagle's Medium (DMEM) supplemented with 10% foetal calf serum and 1% of the penicillin streptomycin stock solution.
# femoral bone fracture = assay: Bone quality examined after 35 treatment days (decalcified and non-decalcified); format: in vivo, Sprague Dawley rats; settings: following 35 treatment days, none-decalcification
# Protocol: Pseudo-fractures were created by making a trough on one surface of the femoral shaft through one side of the cortex. The compositions were administered locally by daily injection. Animals: Naive male Sprague Dawley rats (SD rats), 12 weeks old, around 350 g. Right leg was treated while the left leg serves as a control (vehicle).
# Bone quality was examined after 35 treatment days. For the G1−B+L group, cell proliferation was improved by >44% compared to untreated bone.
# Bone endosteal & periosteal proliferation, defect fill and bone quality were evaluated following 35 treatment days of femoral bone fracture with β-caryophyllene (none-decalcification).
# [1] = test system: Human primary osteoblast cells; settings: osteoblasts, 24 and 96 hours, tested 0 to 6,561 μM
# Protocol: as §1
# Human primary osteoblast cells are maintained in a 37° C. humidified incubator with 5% CO2 atmosphere. Cells are cultured in Primary Osteoblast Media containing Primary Osteoblast Culture Supplement and 1% of the penicillin/streptomycin stock solution.
substance,measurement,setting,value
(−)-β-caryophyllene,concentration without significant cytotoxic effect,MUTZ-3 cells,up to 27 μM
same,bone quality,femoral bone fracture,Significant improvement
same,defect fill,femoral bone fracture,Significant improvement
same,endosteal and periosteal proliferation,femoral bone fracture,Significant improvement
same,concentration without significant cytotoxic effect,[1],up to 27 μM
